One assay addresses T1, 5-HT2B (Homo sapiens, UniProt P41595).
T1 construct: purchased NIMH Psychoactive Drug Screening Program (PDSP)
The assay can be described thus: PDSP primary binding 5-HT2B. Particulars: 1.5 h; primary binding, 10,000 nM; last figure of the line = mean of the 4 before it; read-out: 5-HT2B, PDSP raw data, mean. The protocol:
(§1) To determine if any off-target receptor-binding effects are present, all the novel ligands were sent to the National Institute of Mental Health (NIMH), Psychoactive Drug Screening Program (PDSP). The ligands were screened over a panel of 47 receptors, ion channels, and transporters to determine any other possible interactions with […]. The hERG-binding was also determined. […] No binding of the test compounds to calcium channels was observed. […] It is necessary to screen the compounds for hERG-binding during the early process of drug discovery. The unintentional binding of many drugs to hERG can cause blockade of hERG K+ channels in the heart, which can cause many side effects including cardiac arrhythmias and sudden death. […] All of the α5 imidazodiazepines were tested for hERG-binding.
(§2) The NIMH PDSP assay protocol book [https://kidbdev.med.unc.edu/databases/PDSP%20Protocols%20II%202013-03-28.pdf accessed on 23 April 2023]. describes the protocols for primary and secondary radio-ligand binding assays. These assays were carried out in a final volume of 125 µL per well in the appropriate binding buffer.
(§3) The binding of a ligand to a receptor, ion channel, or transporter was determined in the […] of 10 µM of the appropriate reference compound. […] Plates were incubated in the dark for 90 min at rt, and the reactions were stopped by vacuum filtration onto 0.3% polyethyleneimine (PEI) soaked 96-well filter mats using a 96-well Filtermateharvester. This was followed by three washes with cold PBS buffer. Radioactivity was then counted on a Microbeta counter. Nonlinear regression was used to analyze the data with N = 6 replicates.

The target in a further assay is T2, 5-HT5A (Homo sapiens, UniProt P47898).
T2 construct: purchased NIMH Psychoactive Drug Screening Program (PDSP)
In words: PDSP primary binding 5-HT5A. The note with it: 1.5 h; primary binding, 10,000 nM; last figure of the line = mean of the 4 before it; read-out: 5-HT5A, PDSP raw data, mean. The protocol: as §1, §2, §3

Another assay concerns the target T3, Alpha2A (Homo sapiens, UniProt P08913).
T3 construct: purchased NIMH Psychoactive Drug Screening Program (PDSP)
T3 sequence (P08913 1-465): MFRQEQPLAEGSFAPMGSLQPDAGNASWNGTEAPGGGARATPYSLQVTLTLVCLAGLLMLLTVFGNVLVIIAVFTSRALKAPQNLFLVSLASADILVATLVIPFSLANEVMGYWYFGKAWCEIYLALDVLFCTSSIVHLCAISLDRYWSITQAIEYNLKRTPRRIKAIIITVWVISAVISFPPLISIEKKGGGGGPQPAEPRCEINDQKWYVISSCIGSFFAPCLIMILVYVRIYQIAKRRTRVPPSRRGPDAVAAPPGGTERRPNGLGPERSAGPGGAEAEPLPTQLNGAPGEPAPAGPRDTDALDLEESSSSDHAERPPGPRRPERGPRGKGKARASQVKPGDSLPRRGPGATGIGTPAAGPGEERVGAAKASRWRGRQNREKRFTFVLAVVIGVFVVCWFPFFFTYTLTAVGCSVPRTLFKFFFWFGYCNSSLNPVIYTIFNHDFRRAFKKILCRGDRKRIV
In words: PDSP primary binding Alpha2A. The note with it: 1.5 h; primary binding, 10,000 nM; last figure of the line = mean of the 4 before it; read-out: Alpha2A, PDSP raw data, mean. As to the method: as §1, §2, §3

The target in another assay is T4, Beta1 (Homo sapiens, UniProt P08588).
T4 construct: purchased NIMH Psychoactive Drug Screening Program (PDSP)
In words: PDSP primary binding Beta1. Particulars: 1.5 h; primary binding, 10,000 nM; last figure of the line = mean of the 4 before it; read-out: Beta1, PDSP raw data, mean. As to the method:
as §1, §2, §3

The next assay addresses T5, D1 (Homo sapiens, UniProt P21728).
T5 construct: purchased NIMH Psychoactive Drug Screening Program (PDSP)
The assay can be described thus: PDSP primary binding D1. Particulars: 1.5 h; primary binding, 10,000 nM; last figure of the line = mean of the 4 before it; read-out: D1, PDSP raw data, mean. The protocol:
as §1, §2, §3

A further assay concerns the target T6, H4 (Homo sapiens, UniProt Q9H3N8).
T6 construct: purchased NIMH Psychoactive Drug Screening Program (PDSP)
In words: PDSP primary binding H4. The note with it: primary binding, 10,000 nM; last figure of the line = mean of the 4 before it; read-out: H4, PDSP raw data, mean. As to the method:
as §1, §2, §3

Another assay deals with T7, M4 (Homo sapiens, UniProt P08173).
T7 construct: purchased NIMH Psychoactive Drug Screening Program (PDSP)
T7 sequence (P08173 1-479): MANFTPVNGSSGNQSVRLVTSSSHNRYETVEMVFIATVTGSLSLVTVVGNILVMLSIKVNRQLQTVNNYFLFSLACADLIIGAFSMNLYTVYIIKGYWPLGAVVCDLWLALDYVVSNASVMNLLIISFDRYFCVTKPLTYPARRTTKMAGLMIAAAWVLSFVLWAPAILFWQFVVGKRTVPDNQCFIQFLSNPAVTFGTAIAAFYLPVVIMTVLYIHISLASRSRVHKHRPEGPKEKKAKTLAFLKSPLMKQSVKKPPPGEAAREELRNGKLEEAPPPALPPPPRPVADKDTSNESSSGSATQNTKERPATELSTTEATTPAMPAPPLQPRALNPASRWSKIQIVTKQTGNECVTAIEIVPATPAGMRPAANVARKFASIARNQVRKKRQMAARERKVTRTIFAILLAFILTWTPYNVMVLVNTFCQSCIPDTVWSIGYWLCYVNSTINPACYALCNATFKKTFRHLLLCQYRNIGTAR
In words: PDSP primary binding M4. Particulars: primary binding, 10,000 nM; last figure of the line = mean of the 4 before it; read-out: M4, PDSP raw data, mean. As to the method:
as §1, §2, §3

The target of another assay is T8, M5 (Homo sapiens, UniProt P08912).
T8 construct: purchased NIMH Psychoactive Drug Screening Program (PDSP)
T8 sequence (P08912 1-532): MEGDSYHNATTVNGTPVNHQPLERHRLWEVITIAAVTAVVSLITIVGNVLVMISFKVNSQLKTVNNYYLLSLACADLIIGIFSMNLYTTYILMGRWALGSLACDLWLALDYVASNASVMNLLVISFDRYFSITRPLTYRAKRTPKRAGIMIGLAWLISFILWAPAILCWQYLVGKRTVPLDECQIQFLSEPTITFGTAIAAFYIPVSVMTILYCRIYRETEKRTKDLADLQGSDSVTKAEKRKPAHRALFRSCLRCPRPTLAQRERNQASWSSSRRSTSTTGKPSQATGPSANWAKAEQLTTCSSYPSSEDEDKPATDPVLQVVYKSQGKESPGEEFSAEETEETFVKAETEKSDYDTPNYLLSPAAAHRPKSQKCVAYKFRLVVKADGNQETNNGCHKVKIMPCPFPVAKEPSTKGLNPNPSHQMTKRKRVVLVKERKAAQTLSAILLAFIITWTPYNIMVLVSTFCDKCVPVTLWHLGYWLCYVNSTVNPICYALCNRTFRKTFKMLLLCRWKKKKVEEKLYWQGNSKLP
The assay can be described thus: PDSP primary binding M5. Particulars: primary binding, 10,000 nM; last figure of the line = mean of the 4 before it; read-out: M5, PDSP raw data, mean. The protocol: as §1, §2, §3

For three compounds, inhibition results are on record in PMC10303271, “Synthesis and Receptor Binding Studies of α5 GABAAR Selective Novel Imidazodiazepines Targeted for Psychiatric and Cognitive Disorders” (Molecules, 2023).

T4 sequence (P08588 whole entry): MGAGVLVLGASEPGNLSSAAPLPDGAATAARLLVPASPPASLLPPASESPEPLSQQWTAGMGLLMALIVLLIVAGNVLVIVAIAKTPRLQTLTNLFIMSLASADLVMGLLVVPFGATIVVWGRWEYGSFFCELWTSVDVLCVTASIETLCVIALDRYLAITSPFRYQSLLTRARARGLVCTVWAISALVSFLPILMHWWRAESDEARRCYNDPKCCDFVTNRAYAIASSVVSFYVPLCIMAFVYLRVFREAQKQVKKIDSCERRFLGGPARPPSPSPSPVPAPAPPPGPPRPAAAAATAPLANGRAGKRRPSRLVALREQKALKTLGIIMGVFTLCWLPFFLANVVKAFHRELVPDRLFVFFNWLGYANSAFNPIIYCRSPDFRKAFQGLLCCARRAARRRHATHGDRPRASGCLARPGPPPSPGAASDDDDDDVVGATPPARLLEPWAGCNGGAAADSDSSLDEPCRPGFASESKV
T2 sequence (P47898 whole entry): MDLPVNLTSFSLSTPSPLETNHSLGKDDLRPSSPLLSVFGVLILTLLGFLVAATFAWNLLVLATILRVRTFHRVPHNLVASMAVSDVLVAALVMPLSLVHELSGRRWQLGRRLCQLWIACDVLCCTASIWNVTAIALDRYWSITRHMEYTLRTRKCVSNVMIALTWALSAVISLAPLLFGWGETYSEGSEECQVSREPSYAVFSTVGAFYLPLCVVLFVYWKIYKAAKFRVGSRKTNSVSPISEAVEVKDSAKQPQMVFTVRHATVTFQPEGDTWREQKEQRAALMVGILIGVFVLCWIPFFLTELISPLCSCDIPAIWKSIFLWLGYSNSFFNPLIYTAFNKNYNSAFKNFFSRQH
T6 sequence (Q9H3N8 whole entry): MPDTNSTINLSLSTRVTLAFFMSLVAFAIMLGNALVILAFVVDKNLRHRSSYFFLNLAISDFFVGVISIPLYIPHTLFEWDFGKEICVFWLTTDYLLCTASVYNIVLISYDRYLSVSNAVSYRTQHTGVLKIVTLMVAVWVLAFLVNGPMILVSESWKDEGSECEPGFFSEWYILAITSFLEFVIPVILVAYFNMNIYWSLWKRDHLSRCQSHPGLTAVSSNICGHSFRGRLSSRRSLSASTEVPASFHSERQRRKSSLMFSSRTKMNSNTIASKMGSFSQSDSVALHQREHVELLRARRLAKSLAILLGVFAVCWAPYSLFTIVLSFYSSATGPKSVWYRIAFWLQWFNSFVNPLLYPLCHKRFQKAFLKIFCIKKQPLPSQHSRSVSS
T1 sequence (P41595 whole entry): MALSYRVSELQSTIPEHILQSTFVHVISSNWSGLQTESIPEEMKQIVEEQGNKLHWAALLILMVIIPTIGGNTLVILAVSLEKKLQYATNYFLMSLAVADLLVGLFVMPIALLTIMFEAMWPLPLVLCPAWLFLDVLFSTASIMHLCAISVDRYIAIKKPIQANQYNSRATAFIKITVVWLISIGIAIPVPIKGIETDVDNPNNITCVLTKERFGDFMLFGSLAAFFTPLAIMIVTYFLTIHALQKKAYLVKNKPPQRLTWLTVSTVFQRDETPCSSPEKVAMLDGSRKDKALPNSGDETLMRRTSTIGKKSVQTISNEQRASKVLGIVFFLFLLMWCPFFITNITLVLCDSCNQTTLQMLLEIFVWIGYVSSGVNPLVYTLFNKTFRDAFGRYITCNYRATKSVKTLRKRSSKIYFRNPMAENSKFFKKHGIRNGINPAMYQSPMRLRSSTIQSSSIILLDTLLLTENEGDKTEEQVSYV
T5 sequence (P21728 whole entry): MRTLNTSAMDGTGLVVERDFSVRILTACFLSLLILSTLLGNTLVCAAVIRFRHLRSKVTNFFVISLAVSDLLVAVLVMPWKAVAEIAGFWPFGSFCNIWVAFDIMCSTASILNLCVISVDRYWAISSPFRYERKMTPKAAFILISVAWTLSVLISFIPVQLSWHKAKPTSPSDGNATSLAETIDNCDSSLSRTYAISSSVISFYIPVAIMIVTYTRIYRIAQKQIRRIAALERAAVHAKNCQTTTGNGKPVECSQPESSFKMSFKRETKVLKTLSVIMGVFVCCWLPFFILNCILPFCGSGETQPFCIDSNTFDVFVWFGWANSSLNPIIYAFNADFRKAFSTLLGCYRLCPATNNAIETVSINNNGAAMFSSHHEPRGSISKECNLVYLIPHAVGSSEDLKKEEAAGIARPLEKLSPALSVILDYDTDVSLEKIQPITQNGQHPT

For `C#Cc1ccc2c(c1)C(c1ccccn1)=N[C@@H](C)c1c(C(=O)N(C)C)ncn1-2` [Compound 31, (S)-8-Ethynyl-N,N,4-trimethyl-6-(pyridin-2′-yl)-4H-benzo[f]imidazo[1,5-a][1,4]diazepine-3-carboxamide], the inhibition at 10 µM was -3.38% on 5-HT2B; -7.46% at 5-HT5A; -7.15% at Alpha2A; -16.2% at Beta1; -41.5% on D1; -12.6% on H4. The results for the inhibition at 10 µM at M4 and on M5 were 3.2% and -11.8%, respectively.
For the compound `CC(C)c1noc(-c2ncn3c2[C@@H](C)N=C(c2ccccc2F)c2cc(Cl)ccc2-3)n1` [Compound 37, (R)-5-(8-Chloro-6-(2′-fluorophenyl)-4-methyl-4H-benzo[f]imidazo[1,5-a][1,4]diazepin-3-yl)-3-isopropyl-1,2,4-oxadiazole], the inhibition at 10 µM on 5-HT2B was 8.56%; on 5-HT5A it was -2.71%; at Alpha2A, 22.8%; at Beta1, 8.14%; on D1, 27.4%; at H4, 6.39%. The inhibition at 10 µM on M4 is -4.01%; at M5, -4.88%.
As to `C#Cc1ccc2c(c1)C(c1ccccn1)=N[C@@H](C)c1c(C(=O)NC)ncn1-2` [Compound 23, (S)-8-Ethynyl-N,4-dimethyl-6-(pyridin-2′-yl)-4H-benzo[f]imidazo[1,5-a][1,4]diazepine-3-carboxamide], the inhibition at 10 µM at 5-HT2B was -3.33%; at 5-HT5A it was -2.76%; on Alpha2A, 5.8%; at Beta1, -10.8%; on D1, -37.2%; at H4, -16.8%. In addition, the inhibition at 10 µM on M4 is 2.93%; at M5, -13.6%.
